Results from patent publication US11053204B2, “Pyrimidinyloxy benzene derivatives as herbicides” (FMC Corporation, priority 2015, dated 2021).

How the values were obtained:
Type in all cases: in vivo
[1] = tested on: oilseed rape (Brassica napus); experiment: Test C preemergence, plant response rating; settings: Brassica napus, pre-emergence, Preemergence
In short: (§1)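 Visual injury score, 0 = no effect, 100 = complete control, assigned against untreated controls after 13 to 15 d in the greenhouse. Compounds were applied in a surfactant-containing non-phytotoxic solvent mix, preemergence to seeded loam/sand or silt loam soil, or postemergence to 1- to 4-leaf plants (2 to 18 cm).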

[2] = tested on: nutsedge, yellow (yellow nutsedge, Cyperus esculentus); experiment: Test C preemergence, plant response rating; settings: Cyperus, pre-emergence, Preemergence
In short: as §1

[3] = tested on: crabgrass, large (large crabgrass, Digitaria sanguinalis); experiment: Test C preemergence, plant response rating; settings: Digitaria sanguinalis, pre-emergence, Preemergence
In short: as §1

soybean (Glycine max) = experiment: Test C preemergence, plant response rating; settings: Glycine max, pre-emergence, Preemergence
In short: as §1

[4] = tested on: ryegrass, Italian (Italian ryegrass, Lolium multiflorum); experiment: Test C preemergence, plant response rating; settings: Lolium multiflorum, pre-emergence, Preemergence
In short: as §1

[5] = tested on: velvetleaf (Abutilon theophrasti); experiment: Test C preemergence, plant response rating; settings: Abutilon theophrasti, pre-emergence, Preemergence
In short: as §1

[6] = tested on: waterhemp (common waterhemp, Amaranthus rudis); experiment: Test C preemergence, plant response rating; settings: Amaranthus tuberculatus, pre-emergence, Preemergence
In short: as §1

corn (Zea mays) = experiment: Test C preemergence, plant response rating; settings: Zea mays, pre-emergence, Preemergence
In short: as §1

[7] = tested on: morningglory (Ipomoea coccinea); experiment: Test C preemergence, plant response rating; settings: Ipomoea, pre-emergence, Preemergence
In short: as §1

[8] = tested on: foxtail, giant (giant foxtail, Setaria faberii); experiment: Test C preemergence, plant response rating; settings: Setaria faberi, pre-emergence, Preemergence
In short: as §1

[9] = tested on: lambsquarters (Chenopodium album); experiment: Test C preemergence, plant response rating; settings: Chenopodium album, pre-emergence, Preemergence
In short: as §1

[10] = tested on: ragweed (common ragweed, Ambrosia elatior); experiment: Test C preemergence, plant response rating; settings: Ambrosia artemisiifolia, pre-emergence, Preemergence
In short: as §1

[11] = tested on: wheat (winter wheat, Triticum aestivum); experiment: Test C preemergence, plant response rating; settings: Triticum aestivum, pre-emergence, Preemergence
In short: as §1

[12] = tested on: blackgrass (Alopecurus myosuroides); experiment: Test C preemergence, plant response rating; settings: Alopecurus myosuroides, pre-emergence, Preemergence
In short: as §1

[13] = tested on: giant foxtail (Setaria faberii); experiment: Test A preemergence, visual injury rating
In short: (§2)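 Compounds in non-phytotoxic solvent with surfactant applied as soil spray preemergence, or postemergence to plants 2-10 cm at one- to two-leaf stage, in loam/sand. After approximately 10 days in greenhouse, injury rated visually versus untreated controls, 0 (no effect) to 100 (complete control).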

[14] = tested on: barnyardgrass (Echinochloa crus-galli); experiment: Test A preemergence, visual injury rating
In short: as §2

[15] = tested on: ragweed (common ragweed, Ambrosia elatior); experiment: Test A preemergence, visual injury rating
In short: as §2

[16] = tested on: Italian ryegrass (Lolium multiflorum); experiment: Test A preemergence, visual injury rating
In short: as §2

[17] = 31 g ai/ha, 0 to 100 scale, 0 no effect, 100 complete control
[18] = 125 g ai/ha, 0 to 100 scale (0 no effect, 100 complete control)

## O=C(CCC(F)(F)F)c1c(Cl)cccc1Oc1ncc(Cl)cn1 [Compound 107, 1-[2-chloro-6-[(5-chloro-2-pyrimidinyl)oxy]phenyl]-4,4,4-trifluoro-1-butanone]
[1]; 125 g ai/ha, scale of 0 to 100
  plant injury at 125 g/ha: 98%
[1]; 31 g ai/ha, scale 0 to 100
  plant injury at 31 g/ha: 40%
[1]; 62 g ai/ha, scale 0 to 100
  plant injury at 62 g/ha: 85%
[2]; 125 g ai/ha, scale of 0 to 100
  pest or weed control at 125 g/ha: 0%
[2]; 31 g ai/ha, scale 0 to 100
  pest or weed control at 31 g/ha: 0%
[2]; 62 g ai/ha, scale 0 to 100
  pest or weed control at 62 g/ha: 0%
[3]; 125 g ai/ha, scale of 0 to 100
  pest or weed control at 125 g/ha: 100%
[3]; 16 g ai/ha, scale 0 to 100
  pest or weed control at 16 g/ha: 98%
[3]; 31 g ai/ha, scale 0 to 100
  pest or weed control at 31 g/ha: 98%
[3]; 62 g ai/ha, scale 0 to 100
  pest or weed control at 62 g/ha: 100%
Soybean (Glycine max); 125 g ai/ha, scale of 0 to 100
  plant injury at 125 g/ha: 45%
Soybean (Glycine max); 31 g ai/ha, scale 0 to 100
  plant injury at 31 g/ha: 20%
Soybean (Glycine max); 62 g ai/ha, scale 0 to 100
  plant injury at 62 g/ha: 35%
[4]; 125 g ai/ha, scale of 0 to 100
  pest or weed control at 125 g/ha: 90%
[4]; 31 g ai/ha, scale 0 to 100
  pest or weed control at 31 g/ha: 35%
[4]; 62 g ai/ha, scale 0 to 100
  pest or weed control at 62 g/ha: 70%
[5]; 125 g ai/ha, scale of 0 to 100
  pest or weed control at 125 g/ha: 98%
[5]; 31 g ai/ha, scale 0 to 100
  pest or weed control at 31 g/ha: 75%
[5]; 62 g ai/ha, scale 0 to 100
  pest or weed control at 62 g/ha: 98%
[6]; 125 g ai/ha, scale of 0 to 100
  pest or weed control at 125 g/ha: 100%
[6]; 31 g ai/ha, scale 0 to 100
  pest or weed control at 31 g/ha: 98%
[6]; 62 g ai/ha, scale 0 to 100
  pest or weed control at 62 g/ha: 100%
Corn (Zea mays); 125 g ai/ha, scale of 0 to 100
  Corn plant response rating (crop injury, 0 = no effect, 100 = complete kill) at 125 g/ha: 45%
Corn (Zea mays); 16 g ai/ha, scale 0 to 100
  Corn plant response rating (crop injury, 0 = no effect, 100 = complete kill) at 16 g/ha: 0%
Corn (Zea mays); 31 g ai/ha, scale 0 to 100
  Corn plant response rating (crop injury, 0 = no effect, 100 = complete kill) at 31 g/ha: 0%
Corn (Zea mays); 62 g ai/ha, scale 0 to 100
  Corn plant response rating (crop injury, 0 = no effect, 100 = complete kill) at 62 g/ha: 15%
[7]; 125 g ai/ha, scale of 0 to 100
  pest or weed control at 125 g/ha: 85%
[7]; 31 g ai/ha, scale 0 to 100
  pest or weed control at 31 g/ha: 0%
[7]; 62 g ai/ha, scale 0 to 100
  pest or weed control at 62 g/ha: 40%
[8]; 125 g ai/ha, scale of 0 to 100
  pest or weed control at 125 g/ha: 98%
[8]; 31 g ai/ha, scale 0 to 100
  pest or weed control at 31 g/ha: 98%
[8]; 62 g ai/ha, scale 0 to 100
  pest or weed control at 62 g/ha: 98%
[9]; 125 g ai/ha, scale of 0 to 100
  pest or weed control at 125 g/ha: 95%
[9]; 31 g ai/ha, scale 0 to 100
  pest or weed control at 31 g/ha: 75%
[9]; 62 g ai/ha, scale 0 to 100
  pest or weed control at 62 g/ha: 85%
[10]; 125 g ai/ha, scale of 0 to 100
  pest or weed control at 125 g/ha: 50%
[10]; 31 g ai/ha, scale 0 to 100
  pest or weed control at 31 g/ha: 30%
[10]; 62 g ai/ha, scale 0 to 100
  pest or weed control at 62 g/ha: 50%
[11]; 125 g ai/ha, scale of 0 to 100
  plant injury at 125 g/ha: 35%
[11]; 31 g ai/ha, scale 0 to 100
  plant injury at 31 g/ha: 10%
[11]; 62 g ai/ha, scale 0 to 100
  plant injury at 62 g/ha: 15%
[12]; 125 g ai/ha, scale of 0 to 100
  pest or weed control at 125 g/ha: 90%
[12]; 16 g ai/ha, scale 0 to 100
  pest or weed control at 16 g/ha: 60%
[12]; 31 g ai/ha, scale 0 to 100
  pest or weed control at 31 g/ha: 90%
[12]; 62 g ai/ha, scale 0 to 100
  pest or weed control at 62 g/ha: 90%
[13]; [17]
  Plant response rating, Foxtail, Giant: 100
[13]; [18]
  Plant response rating, Foxtail, Giant: 100
[14]; [17]
  Plant response rating, Barnyardgrass: 90
[14]; Echinochloa crus-galli, pre-emergence, 240 h, 125 g ai/ha, 0 to 100 scale (0 no effect, 100 complete control), read-out: Barnyardgrass plant response rating
  pest or weed control at 125 g/ha: 100%
[15]; [17]
  Plant response rating, Ragweed: 0
[15]; [18]
  Plant response rating, Ragweed: 20
[16]; [17]
  Plant response rating, Ryegrass, Italian: 30
[16]; [18]
  Plant response rating, Ryegrass, Italian: 80
